Assay [1] concerns the target T1, Neuropeptide Y receptor type 1 (Homo sapiens, UniProt P25929).
T1 sequence (P25929 whole entry): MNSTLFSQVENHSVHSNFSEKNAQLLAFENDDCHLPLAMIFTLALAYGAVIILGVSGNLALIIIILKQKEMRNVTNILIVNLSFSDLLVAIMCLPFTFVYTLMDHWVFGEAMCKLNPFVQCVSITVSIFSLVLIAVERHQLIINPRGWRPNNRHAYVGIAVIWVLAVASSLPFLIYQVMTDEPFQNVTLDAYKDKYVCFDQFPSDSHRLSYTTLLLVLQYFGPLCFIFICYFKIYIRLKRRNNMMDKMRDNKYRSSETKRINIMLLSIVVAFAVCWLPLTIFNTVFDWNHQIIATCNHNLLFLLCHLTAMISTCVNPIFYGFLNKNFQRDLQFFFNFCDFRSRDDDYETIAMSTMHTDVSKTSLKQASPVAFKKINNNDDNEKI
The assay can be described thus: Displacement of [3H]UR-MK299 from Y1 receptor in human SK-N-MC cells by radioligand binding assay. In kind it is cell-based. On the technique in general: Displacement assays read how much labelled ligand stays bound in the presence of the test substance.

Assay [2] deals with T2, Neuropeptide Y receptor type 1 (Homo sapiens) (UniProt P25929).
T2 sequence (whole entry): T1 sequence (P25929 whole entry)
The following applies: HEL, filed as antagonist, time 15.0 min.

The target of assay [3] is T1, Neuropeptide Y receptor type 1. As to the kind of experiment: Antagonist activity at Y1 receptor in human HEL cells assessed as reduction in pNPY-induced calcium mobilization preincubated for 15 mins followed by pNPY stimulation and measured immediately by Fura-2 dye based fluorescence assay. In kind it is functional, cell-based. (Calcium assays in cells follow changes in intracellular calcium, usually with a dye or a luminescent sensor.)

The values below come from ChEMBL document CHEMBL4699401, “Argininamide-type neuropeptide Y Y1 receptor antagonists: the nature of Nomega-carbamoyl substituents determines Y1R binding mode and affinity” (RSC Med Chem, 2020).

The term Ki denotes a measure of affinity in units of concentration, obtained from inhibition or displacement. As a reminder, the pKb is the Kb on a negative log10 scale, so that one unit is a factor of ten. Low values mean a large Kb, high ones a small Kb. The IC50 is the concentration that inhibits the measured activity by half. In assay [1], `N/C(=N/C(=O)NCCNC(=O)C(c1ccccc1)c1ccccc1)NCCC[C@@H](NC(=O)C(c1ccccc1)c1ccccc1)C(=O)NCc1ccc(O)cc1` had a Ki of 295 nM. Moreover, in assay [2], the pKb was 7.16. The IC50 in assay [3] is 525 nM.
In the same order, the values of `N/C(=N/C(=O)NCCNC(=O)c1ccccc1)NCCC[C@@H](NC(=O)C(c1ccccc1)c1ccccc1)C(=O)NCc1ccc(O)cc1` are 56.2 nM, 8.82 and 11.5 nM.
In assay [1], `CC(=O)NCCNC(=O)/N=C(/N)NCCC[C@@H](NC(=O)C(c1ccccc1)c1ccccc1)C(=O)NCc1ccc(O)cc1` gave a Ki of 0.0589 nM.
The molecule `N/C(=N/C(=O)NCCNC(=O)C1CCCCC1)NCCC[C@@H](NC(=O)C(c1ccccc1)c1ccccc1)C(=O)NCc1ccc(O)cc1` showed a Ki in assay [1] of 380 nM. The same molecule returned a pKb in assay [2] of 8.39. Also, the IC50 in assay [3] was 30.9 nM.
In assay [1], `N/C(=N/C(=O)NCCNC(=O)CF)NCCC[C@@H](NC(=O)C(c1ccccc1)c1ccccc1)C(=O)NCc1ccc(O)cc1` gave a Ki of 0.0316 nM. Further, in assay [3], the IC50 is 0.055 nM.
On to `N/C(=N/C(=O)NCCNC(=O)CBr)NCCC[C@@H](NC(=O)C(c1ccccc1)c1ccccc1)C(=O)NCc1ccc(O)cc1`, for which the affinity in assay [1] corresponds to a Ki of 0.126 nM. Also, in assay [2], the pKb is 11.1. Besides, in assay [3], the IC50 was 0.0617 nM.
In the same order, the values of `C=CC(=O)NCCNC(=O)/N=C(/N)NCCC[C@@H](NC(=O)C(c1ccccc1)c1ccccc1)C(=O)NCc1ccc(O)cc1` are 0.112 nM, 10.6 and 0.186 nM.
As for `N/C(=N/C(=O)NCCNC(=O)C1CC1)NCCC[C@@H](NC(=O)C(c1ccccc1)c1ccccc1)C(=O)NCc1ccc(O)cc1`, the inhibition constant Ki in assay [1] was 1.17 nM. The pKb in assay [2] worked out at 10.5. For the same molecule, in assay [3], the IC50 is 0.24 nM.
`N/C(=N/C(=O)NCCNC(=O)C(F)F)NCCC[C@@H](NC(=O)C(c1ccccc1)c1ccccc1)C(=O)NCc1ccc(O)cc1`: the Ki in assay [1] is 0.0676 nM. Further, the IC50 in assay [3] was 0.11 nM.
Molecule `CCC(=O)NCCCNC(=O)/N=C(/N)NCCC[C@@H](NC(=O)C(c1ccccc1)c1ccccc1)C(=O)NCc1ccc(O)cc1` gave an inhibitory constant (Ki) in assay [1] of 0.0741 nM. This counts as picomolar.
For the molecule `N/C(=N/C(=O)NCCNC(=O)C1CCCC1)NCCC[C@@H](NC(=O)C(c1ccccc1)c1ccccc1)C(=O)NCc1ccc(O)cc1`, the Ki in assay [1] was 52.5 nM. In addition, the pKb in assay [2] was found to be 9. In assay [3], the IC50 is 7.59 nM.
Regarding `N/C(=N/C(=O)NCCNC(=O)CCCl)NCCC[C@@H](NC(=O)C(c1ccccc1)c1ccccc1)C(=O)NCc1ccc(O)cc1`, in assay [1], the Ki was 0.38 nM. Moreover, the IC50 in assay [3] is 0.589 nM.
Regarding `Cc1cc(/C=C/C=C/c2ccc(N(C)C)cc2)cc(C)[n+]1CCNC(=O)/N=C(/N)NCCC[C@@H](NC(=O)C(c1ccccc1)c1ccccc1)C(=O)NCc1ccc(O)cc1`, in assay [1], the Ki is 102 nM.
For `N/C(=N/C(=O)NCCNC(=O)C1CCC1)NCCC[C@@H](NC(=O)C(c1ccccc1)c1ccccc1)C(=O)NCc1ccc(O)cc1`, the affinity in assay [1], expressed as Ki, was 1.1 nM. This molecule also displayed a pKb in assay [2] of 10.5. Further, the IC50 in assay [3] is 0.24 nM.
Molecule `CC(C)(C)C(=O)NCCNC(=O)/N=C(/N)NCCC[C@@H](NC(=O)C(c1ccccc1)c1ccccc1)C(=O)NCc1ccc(O)cc1` had a Ki in assay [1] of 45.7 nM. This molecule also returned a pKb in assay [2] of 8.71. In addition, the IC50 in assay [3] is 14.5 nM.
Consider `CC(=O)NCCCNC(=O)/N=C(/N)NCCC[C@@H](NC(=O)C(c1ccccc1)c1ccccc1)C(=O)NCc1ccc(O)cc1`, for which affinity in assay [1] was put at a Ki of 0.0631 nM.
`N/C(=N/C(=O)NCCNC(=O)Cc1ccccc1)NCCC[C@@H](NC(=O)C(c1ccccc1)c1ccccc1)C(=O)NCc1ccc(O)cc1` had a Ki in assay [1] of 302 nM. The pKb in assay [2] amounted to 7.9. In addition, in assay [3], the IC50 is 95.5 nM.
As to `N/C(=N/C(=O)NCCNC(=O)C(F)(F)F)NCCC[C@@H](NC(=O)C(c1ccccc1)c1ccccc1)C(=O)NCc1ccc(O)cc1`, in assay [1], the Ki is 0.0708 nM. For the same molecule, the IC50 in assay [3] is 0.126 nM.
`N/C(=N/C(=O)NCCNC(=O)CO)NCCC[C@@H](NC(=O)C(c1ccccc1)c1ccccc1)C(=O)NCc1ccc(O)cc1` showed a Ki in assay [1] of 0.145 nM. Moreover, the negative-log Kb (pKb) in assay [2] was found to be 10.9. Also, the IC50 in assay [3] is 0.0912 nM.
In turn, `CC(C)C(=O)NCCNC(=O)/N=C(/N)NCCC[C@@H](NC(=O)C(c1ccccc1)c1ccccc1)C(=O)NCc1ccc(O)cc1` showed a Ki in assay [1] of 0.309 nM. The pKb in assay [2] was 11.1. In addition, in assay [3], the IC50 is 0.0661 nM.
`N/C(=N/C(=O)NCCNC(=O)CCl)NCCC[C@@H](NC(=O)C(c1ccccc1)c1ccccc1)C(=O)NCc1ccc(O)cc1` showed a Ki in assay [1] of 0.0525 nM. In assay [3], the IC50 is 0.0794 nM.
In assay [1], `N/C(=N/C(=O)NCCNC(=O)c1ccc(F)cc1)NCCC[C@@H](NC(=O)C(c1ccccc1)c1ccccc1)C(=O)NCc1ccc(O)cc1` showed a Ki of 295 nM. Moreover, in assay [2], the pKb was 8.67. Also, in assay [3], the IC50 was 16.2 nM.
